Experimental data published in patent US20080131907A1, “ASSAYS FOR DETECTING NATIVE-STATE PROTEINS AND IDENTIFYING COMPOUNDS THAT MODULATE THE STABILITY OF NATIVE-STATE PROTEINS” (FoldRx Pharmaceuticals, Inc., priority 2006, published 2008).
“And” between values parts separate entries of the source, which are not always exact repeats. Identical values can stand only once.

Experiments:
[1] = biological target: T1, tetrameric transthyretin (Homo sapiens, UniProt P02766); test: Immuno-turbidimetric assay 2: plasma + compound, urea, no cross-linking (dilution or immediate detection); conditions: for Stabilization of transthyretin tetramer (in words): 7.2 μM, urea for 3 days, Table 2; for Stabilization of transthyretin tetramer (in words) / Beckman Normalized / Olympus Normalized: human plasma; for Beckman Normalized / Olympus Normalized: 7.2 μM compound, 4.8 M urea; for Beckman Normalized: Beckman reagent; for Olympus Normalized: Olympus reagent
Description: In this second assay, the cross-linking step is replaced with a step of terminating denaturation (caused by the urea treatment) by dilution of the sample. Briefly, a 1 ml sample of human plasma was combined with either 1 μl of a test compound (Cmp. 1: 2-(2,6-dichloro-phenyl)-benzoxazole-6-carboxylic acid or Cmp. 2: 2-(3,5-dichloro-phenyl)-benzoxazole-6-carboxylic acid; see Published U.S. Application No. 20040152140) solubilized in DMSO or a control solution of DMSO, and the samples were incubated for 15 minutes at room temperature prior to addition of urea. The final concentration of the test compounds was 7.2 μM in DMSO. A solution of urea was added such that the final concentration of urea in the sample was 4.8 M. A 1 mL aliquot was removed immediately (no incubation (no-inc)) for dilution (see below) and the remaining 1.5 mL mixture was incubated for 3 days at room temperature (3 day) (FIG. 3). Immediately (for the no-inc) or following the three day incubation (for the 3 day samples), the samples were diluted 1:5 (four volumes diluent were added per one volume equivalent of sample). Potassium chloride (KCl) and sodium phosphate (NaPO4) were also added to the samples at final concentrations of 50 mM and 25 mM, respectively.
2 was also monitored using immuno-turbidimetric assay 2 (Example 2). Plasma samples (a pool from 16 individual donors) containing 4.6 μM transthyretin were treated with 4.6 μm, or 9.2 μm Cmp. 2, or DMSO as a negative control, for 15 minutes at room temperature. Following the incubation, urea was added to the samples resulting in a final urea concentration of 3.2 M (see FIG. 7). Aliquots were removed immediately (day 0) and after incubation at room temperature for 8, 13, 24, 32, and 48 hours. Immediate detection of transthyretin using the Bayer ADVIA prealbumin kit was performed as described by the manufacturer. For each concentration of Cmp. 2, the assay-determined transthyretin concentration at 8, 13, 24, 32, and 48 hours was divided by the assay-determined initial concentration at day 0 to yield the percent of tetramer remaining (FIG. 7).

[2] = biological target: T1, tetrameric transthyretin; test: Western blotting method (urea, cross-linking, SDS-PAGE, anti-transthyretin immunoblot) of plasma samples; assay type: biochemical; design: human plasma samples containing transthyretin; from tissue; host or cells: human plasma (single samples or pools of donors); conditions: 7.2 μM, 3 day urea treatment, FIG. 4B
Description: The position of transthyretin tetramer on the immunoblot is indicated at the left of the immunoblot, and the time point at which the samples were collected for assay (0 or 3 days) are indicated above the immunoblot.

[3] = biological target: T1, tetrameric transthyretin; test: Immuno-turbidimetric assay 1: plasma + compound, 4.8 M urea, glutaraldehyde cross-linking, Olympus OSR6175 reagent; conditions: for Normalized (mg/dL) transthyretin tetramer concentration: 7.2 μM compound, 40 mM glutaraldehyde
Description: Next, the immuno-turbidity assay was evaluated in human plasma samples containing transthyretin and in the presence and absence of a test compound 2-(2,6-dichloro-phenyl)-benzoxazole-6-carboxylic acid (a transthyretin stabilizing compound, see Published U.S. Application No. 20040152140). A 1 mL plasma sample was incubated with 1 μL of 2-(2,6-Dichloro-phenyl)-benzoxazole-6-carboxylic acid (solubilized in dimethyl sulfoxide (DMSO), or a control solution containing only DMSO, for 15 minutes at room temperature. The final test concentration of 2-(2,6-dichloro-phenyl)-benzoxazole-6-carboxylic acid (Cmp. 1) was 7.2 μM. Experimental (with compound) or control (only DMSO) samples were then each combined with 1.5 mL of 8 M urea to a final urea concentration of 4.8 M. A 1 mL aliquot was removed immediately (no incubation (no-inc)) for cross-linking and the remaining 1.5 mL mixture was incubated for 3 days at room temperature (3 day). Immediately for the no-inc 1 mL aliquot or following the 3 day incubation for the 3 day samples, 1 mL of the samples was cross-linked by adding 16 L of 25% (2.5 M) glutaraldehyde in water to a final concentration of 40 mM. The mixtures were incubated for 4 minutes at room temperature. The cross-linking reaction was stopped by the addition of 54 μL of 1.85 M freshly prepared sodium borohydride in 0.1 N sodium hydroxide, followed by a 5 minute incubation at room temperature. For analysis, the OSR6175 reagent was added to sample per manufacturer's instructions, and the turbidity, as a measure of the difference between incident and transmitted light, was calculated per manufacturer instruction.
To test the effect of different dosages of 2-(3,5-dichloro-phenyl)-benzoxazole-6-carboxylic acid (Cmp. 2) on transthyretin stabilization, plasma samples (a pool from 20 individual donors) containing 4.3 M transthyretin were treated with 2.2 μM, 4.3 μm, or 8.6 μm Cmp. 2, or DMSO as a negative control, for 15 minutes at room temperature. Following the incubation, the urea denaturant was added to the samples resulting in a final urea concentration of 4.8 M (see FIG. 6). As above, aliquots were removed immediately (day 0) and after incubation at room temperature for 1, 2, and 3 days. Cross-linking (glutaraldehyde) and detection of transthyretin using the Olympus OSR6175 reagent were performed as described under Example 1. For each concentration of Cmp. […]
Since the concentration of transthyretin fluctuates from day to day in an individual subject and can vary between different subjects (e.g., different patients), the efficacy of Cmp. […] Samples were then subjected to denaturation and cross-linking, and stabilized tetrameric transthyretin was measured as described above in Examples 1 and 3.

[4] = biological target: V30M transthyretin mutation, tetrameric transthyretin (Homo sapiens, UniProt P02766, V50M); test: Immuno-turbidimetric assay 1 on pooled plasma from familial amyloid polyneuropathy patients; assay type: biochemical; conditions: urea 24, 31 or 36, or 48 hours; 22 mg/dL transthyretin; FIG. 9
Description: The Y-axis represents the percentage of the initial (“Fraction of initial”) transthyretin tetramer concentration remaining in each sample following treatment with urea.
The samples were then subjected to denaturation for 24, 31 or 36, or 48 hours and then cross-linked (as above).

Stabilization of transthyretin tetramer (in words) [1]	Beckman Normalized ([1]; Day 0)	Olympus Normalized ([1]; Day 0)	Beckman Normalized ([1]; Day 3)	Olympus Normalized ([1]; Day 3)	Stabilization of tetrameric transthyretin by western blot (in words) [2]	Stabilization of tetrameric transthyretin (in words) ([3]; 7.2 μM, three-day 4.8 M urea treatment, human plasma)	Normalized (mg/dL) transthyretin tetramer concentration ([3]; Day 0 (no incubation), 4.8 M urea, human plasma)	Normalized (mg/dL) transthyretin tetramer concentration ([3]; Day 3 in 4.8 M urea, human plasma)	Dose dependence of tetramer stabilization (percent of tetramer remaining) ([1]; 4.6 or 9.2 μM, 3.2 M urea, 8-48 hours, Bayer ADVIA prealbumin kit, pooled plasma, FIG. 7)	Stabilization of tetrameric transthyretin in V30M patient plasma [4]	Dose dependence of tetramer stabilization (percent of tetramer remaining) ([3]; 2.2, 4.3, 8.6 μM, 4.8 M urea, days 1, 2, 3, pooled plasma, FIG. 6)	Structure (SMILES)
almost completely stabilized	10.53 mg/dL	22.12 mg/dL	12.26 mg/dL	23.45 mg/dL	almost completely stabilized	nearly completely stabilized	23.5 mg/dL	21.9 mg/dL				O=C(O)c1ccc2nc(-c3c(Cl)cccc3Cl)oc2c1 [Cmp. 1]
significantly stabilized		22.12 mg/dL and 23.72 mg/dL		13.59 mg/dL					more effective than lower concentrations	stabilized in a dose-dependent manner	more effective than lower concentrations	O=C(O)c1ccc2nc(-c3cc(Cl)cc(Cl)c3)oc2c1 [Cmp. 2]
